From patent publication EP0717040A1, “Thiazine or thiazepine derivatives which inhibit NOS” (Japan Tobacco Inc., priority 1994, dated 1996)
pIC50: −log10 of the molar value. Counter-ions that a name gives are not always drawn. Like-named read-outs stand apart in the source and are kept apart here.

Key:
[1] = target: T1, constitutive NO synthase (cNOS) (Rattus norvegicus, UniProt P29476); test: Activity to inhibit constitutive NO synthase (cNOS) derived from rat cerebellum; conversion of [3H]-L-arginine to [3H]-L-citrulline; type: biochemical
T1 construct: cNOS was extracted from a rat cerebellum; from tissue; host or cells: rat cerebellum
Description: Activity to inhibit constitutive NO synthase (cNOS) derived from rat cerebellum
The inhibition activity was tested according to a method of P. A. Bush et al. (Biochem, Biophys, Res. Commun., 185, 960-966 (1992)), using [³H]-L-arginine as a substrate and taking the conversion of [³H]-L-arginine to [³H]-L-citrulline as an index of the enzyme activity.
The test was conducted as follows: First, cNOS was extracted from a rat cerebellum with a 50 mM Tris-HCl buffer solution (pH 7.4) which contains 0.1 mM EDTA (ethylenediamine tetraacetate), 0.1 mM EGTA (ethyleneglycol bis(β-aminoethyl ether)-tetraacetate), 0.5 mM DTT (dithiothreitol), 1 µM PMSF (phenylmethylsulfonyl fluoride), 1 µM bestatin A, and 1 µM leupeptin. To the cNOS thus extracted, a 50 mM Tris-HCl buffer solution (pH 7.4) containing 10 µM L-arginine, 10 µM NADPH, 2 mM calcium chloride and calmoduline (0.1 µg), together with a test compound and [³H]-L-arginine were added. The mixture was incubated for 10 minutes at 25°C. The reaction was terminated by adding 20 mM sodium acetate buffer solution (pH 5.5) containing 1 mM L-citrulline, 2 mM EDTA, and 0.2 mM EGTA. The reaction solution was passed through a cation-exchange resin. This eluate was combined with another eluate which was obtained thereafter by eluting with water. To the combined eluate, a liquid scintillation cocktail was further added and its radioactivity (A) was measured. At the same time, the radioactivity (B) with respect to the case where the test compound was not added and the radioactivity (C) with respect to the case where an enzyme fraction was not added, were respectively measured. Then, the rate of cNOS inhibition was calculated in accordance with the following equation. The concentration (IC₅₀), at which the test compound can inhibit 50 % of the enzyme activity, were also calculated. Inhibition rate (%) = {1 - (A - C/B - C)} × 100 [formula]

[2] = target: T2, inducible NO synthase (iNOS) (Rattus norvegicus, UniProt Q06518); test: Activity to inhibit inducible NO synthase (iNOS) derived from rat macrophages; conversion of [3H]-L-arginine to [3H]-L-citrulline; type: biochemical; design: iNOS was extracted from the macrophages which have been treated with lipopolysaccharide and interferon-γ; endogenous in cells; host or cells: rat peritoneal macrophages treated with lipopolysaccharide and interferon-γ
Description: Activity to inhibit inducible NO synthase (iNOS) derived from rat macrophages
According to partly modified method of Y. Yui et al.(J. Biol. Chem., 266 (19), 12544-12547 (1991)), an iNOS fraction was prepared by applying lipopolysaccharide and interferon-γ to peritoneal macrophages. Thereafter, its enzymatic activity was measured based on the conversion of [³H]-L-arginine to [³H]-L-citrulline, in the same manner as in the case of cNOS.
To the iNOS thus extracted, a 50 mM Tris-HCl buffer solution (pH 7.4) containing 150 µM L-arginine, 5 mM NADPH, 5 mM DTT, 0.5 mM 5,6,7,8-tetrahydro-L-biopterin and 5 µM FAD was added together with a test compound and [³H]-L-arginine. The mixture was incubated for 30 minutes at 37°C. Thereafter, the reaction was terminated by adding a 25 mM sodium acetate buffer solution (pH 5.5) containing 1.25 mM L-citrulline, 2.5 mM EDTA and 0.25 mM EGTA. The reaction solution was passed through a cation-exchange resin. The obtained eluate was combined with the additional eluate obtained thereafter by eluting with water, and the radioactivity of the combined eluate was measured. The inhibition rate of the test compound on iNOS was calculated in the same manner as in Test 1. The concentration (IC₅₀) of the test compound required for inhibiting 50 % of the enzyme activity, were calculated.

[3] = target: T2, inducible NO synthase (iNOS); test: Effect on rat-paw carrageenin edema model by inhibition of iNOS; type: in vivo; settings: oral, 1 hour prior to carrageenin, paw volume 4 hours after induction; for ED50: rat, read-out: Suppression Effect (ED₅₀)
Description: Effect on rat-paw carrageenin edema model by inhibition of inducible NO synthase (iNOS)
To a rat's left leg, 1 % carrageenin solution was subcutaneously administered to induce a paw edema. 4 hours after the induction, paw volume was measured. A test compound was orally administered 1 hour prior to the carrageenin administration. The suppression effect of the test compound was determined.

[4] = target: T3, endothelium nitric oxide synthase (eNOS) (Rattus norvegicus, UniProt Q62600); test: Blood pressure elevating activity in rat by inhibition of eNOS; type: in vivo; settings: dose to elevate mean blood pressure by 25 mmHg; anesthetized rat, administered via femoral vein
T3 construct: from tissue; host or cells: living anesthetized rat
Description: Blood pressure elevating activity in rat by inhibition of endothelium nitric oxide synthase (eNOS) A rat was anesthetized with by peritoneal injection of sodium barbital (300 mg/kg) and catheters were inserted into a femoral artery and a femoral vein. Blood pressure was measured through the catheter inserted in the femoral artery and a test compound was administered through the catheter inserted in the femoral vein. […]

neuronal NOS (nNOS) = target: T4, neuronal NOS (nNOS) (Rattus norvegicus, UniProt P29476); test: Effect on rat cerebral ischemia model by inhibition of nNOS: reperfusion model; type: in vivo; settings: 10 minutes before occlusion, immediately before and 3 hours after reperfusion, infarct area after 48 hours
T4 construct: from tissue; host or cells: living rat (brain)
From the text: Effect on rat cerebral ischemia model by inhibition of neuronal NOS (nNOS): reperfusion model
A rat (weight: 300 g) was fasted overnight and a middle cerebral artery of the rat was occluded and then reperfused to prepare a cerebral ischemia model, according to the method of Koizumi et al. (Jpn. J. Stroke, 8, 1-8 (1986)). More specifically, a rat breathing naturally was immobilized under anesthesia with a laughing gas - oxygen mixed gas and halothane, and then, underwent cervical median dissection. A silicon-coated nylon thread was inserted into an internal carotid artery from a branched portion at which a right external carotid artery and the internal carotid artery is divided, thereby blocking the middle cerebral artery for 1.5 hours. Thereafter, the occluding of the middle cerebral artery was reperfused by removing a thread. After 48 hours, 6 coronal sections were prepared and stained by means of a triphenyltetrazolium chloride method. Non-stained portions were determined as infarct area. The test compound was intravenously injected 10 minutes before the occlusion of middle cerebral artery, immediately before, and 3 hours after reperfusion. The inhibitory effect of each compound was determined.

[5] = cNOS extracted from rat cerebellum, 10 µM L-arginine, 10 minutes at 25°C, read-out: IC₅₀
[6] = iNOS from peritoneal macrophages treated with lipopolysaccharide and interferon-γ, 150 µM L-arginine, 30 minutes at 37°C, read-out: IC₅₀

Compound	pIC50 [1, 5]	pIC50 [2, 6]	pIC50 [1]	pIC50 [2]	other results
NC1=N[C@H](Cc2ccccc2)CCS1 [Example 9, (R)-2-amino-4-benzyl-5,6-dihydro-4H-1,3-thiazine hydrobromide]	–	–	6.70	–	–
CCCC[C@@H]1CCSC(N)=N1 [Example 5, (R)-2-amino-4-butyl-5,6-dihydro-4H-1,3-thiazine hydrobromide]	7.52	7.40	–	–	–
COC1CCSC(N)=N1 (stereo not drawn) [Example 18, Bis(2-amino-5,6-dihydro-4-methoxy-4H-1,3-thiazine) fumarate]	–	–	7.70	8.00	–
CCC[C@H]1CCSC(N)=N1 [Example 4, (S)-2-amino-5,6-dihydro-4-propyl-4H-1,3-thiazine hydrobromide]	7.52	7.70	–	–	–
CC1CC(OCc2ccccc2)N=C(N)S1 (stereo not drawn) [Example 27, Bis(2-amino-4-benzyloxy-5,6-dihydro-6-methyl-4H-1,3-thiazine), fumarate]	–	–	6.40	6.40	–
NC1=N[C@@H](Cc2ccccc2)CCS1 [Example 10, (S)-2-amino-4-benzyl-5,6-dihydro-4H-1,3-thiazine hydrobromide]	–	–	7.52	6.22	–
CC(C)[C@@H]1CCSC(N)=N1 [Example 1, (S)-2-amino-5,6-dihydro-4-isopropyl-4H-1,3-thiazine hydrobromide]	7.70	6.52	–	–	–
CCOC1CC(C)SC(N)=N1 (stereo not drawn) [Example 26, Bis(2-amino-4-ethoxy-5,6-dihydro-6-methyl-4H-1,3-thiazine) fumarate]	–	–	7.10	7.05	–
CC1CN=C(N)SC1 (stereo not drawn) [Example 28, 2-amino-5,6-dihyro-5-methyl-4H-1,3-thiazine hydrobromide]	–	–	7.00	6.70	–
CC(C)[C@H]1CCSC(N)=N1 [Example 2, (R)-2-amino-5,6-dihydro-4-isopropyl-4H-1,3-thiazine hydrobromide]	6.52	–	–	–	–
Br.CCC[C@@H]1CCSC(N)=N1 [Example 3, (R)-2-amino-5,6-dihydro-4-propyl-4H-1,3-thiazine hydrobromide]	–	–	–	–	Suppression Effect [3]: ○; ED50 [3]: 9 mg/kg; ED₂₅ [4]: 0.2 mg/kg; Inhibitory Effect (neuronal NOS (nNOS); dose 10 µg/kg intravenously): ○ (10)
NC1=NC(OCCc2ccccc2)CCS1 (stereo not drawn) [Example 25, Bis(2-amino-5,6-dihydro-4-(2-phenyl)ethyloxy-4H-1,3-thiazine) fumarate]	–	–	7.00	6.52	–
CC1CCCSC(N)=N1 (stereo not drawn) [Example 12, Bis(2-amino-4,5,6,7-tetrahydro-4-methyl-1,3-thiazepine) fumarate]	–	–	7.00	7.15	–
NC1=NCCS1 [Comparative Example 1, 2-aminothiazoline, reference compound]	–	–	–	5.70	–
(R)-2-amino-4-benzyl-4,5,6,7-tetrahydro-1,3-thiazepine hydrobromide [Example 15]	6.22	–	–	–	–
CCOC1CCSC(N)=N1 (stereo not drawn) [Example 21, Bis(2-amino-4-ethoxy-5,6-dihydro-4H-1,3-thiazine) fumarate]	–	–	7.70	7.52	Suppression Effect [3]: ○; ED50 [3]: 0.5 mg/kg; ED₂₅ [4]: 0.06 mg/kg; Inhibitory Effect (neuronal NOS (nNOS); dose 3 µg/kg intravenously): ○ (3)
NC1=NC(OCc2ccccc2)CCS1 (stereo not drawn) [Example 22, Bis(2-amino-4-benzyloxy-5,6-dihydro-4H-1,3-thiazine) fumarate]	–	–	7.00	6.22	–

Second part, led by results:

pIC50 [1, 5]	pIC50 [2, 6]	Compound	pIC50 [1]	pIC50 [2]	other results
6.70	6.30	CC1(C)CN=C(N)SC1 [Example 16, 2-amino-5,6-dihydro-5,5-dimethyl-4H-1,3-thiazine hydrobromide]	–	–	–
6.52	–	CCC[C@@H]1CCCSC(N)=N1 [Example 13, (R)-2-amino-4,5,6,7-tetrahydro-4-propyl-1,3-thiazepine hydrobromide]	–	–	–
7.52	7.15	CCCC[C@H]1CCSC(N)=N1 [Example 6, (S)-2-amino-4-butyl-5,6-dihydro-4H-1,3-thiazine hydrobromide]	–	–	–
7.70	7.30	NC1=NC(O)CCS1 (stereo not drawn) [Example 17, 2-amino-5,6-dihydro-4-hydroxyl-4H-1,3-thiazine hydrochloride]	–	–	–
7.40	7.52	CCCOC1CCSC(N)=N1 (stereo not drawn) [Example 19, 2-amino-5,6-dihydro-4-propyloxy-4H-1,3-thiazine hydrochloride]	–	–	–
7.10	7.15	CC(C)C[C@H]1CCSC(N)=N1 [Example 8, (S)-2-amino-5,6-dihydro-4-isobutyl-4H-1,3-thiazine hydrobromide]	–	–	–
7.52	7.52	CC(C)OC1CCSC(N)=N1 (stereo not drawn) [Example 20, 2-amino-5,6-dihydro-4-isopropoxy-4H-1,3-thiazine fumarate]	–	–	–
7.00	6.70	CC1(C)CCN=C(N)S1 [Example 29, 2-amino-5,6-dihydro-6,6-dimethyl-4H-1,3-thiazine hydrochloride]	–	–	–
7.40	7.15	CC(C)C[C@@H]1CCSC(N)=N1 [Example 7, (R)-2-amino-5,6-dihydro-4-isobutyl-4H-1,3-thiazine hydrobromide]	–	–	–
7.52	7.70	Br.COC[C@@H]1CCSC(N)=N1 [Example 30, (S)-2-amino-5,6-dihydro-4-methoxymethyl-4H-1,3-thiazine hydrobromide]	–	–	ED₂₅ [4]: 0.15 mg/kg; Inhibitory Effect (neuronal NOS (nNOS); dose 10 µg/kg intravenously): ○ (10)
